Data on 8 compounds can be found in PubChem BioAssay AID1259408 (Genetic Toxicology Data Bank (GENE-TOX), 2018).

The source made the active and inactive calls. No rule for the calls is given here.

In this data set the test system is GENE-TOX genotoxicity assays, various organisms and cells. Kind of data set: GENE-TOX mutagenicity studies. As to conditions: Evaluation Type: Evaluation A (Pre-1980).
Setting [1] is: Species/Cell Type: Salmonella typhimurium (one or more of the five standard strains: TA98, TA100, TA1535, TA1537, and TA1538), Assay Type: Histidine reverse gene mutation, Ames assay, Assay Code: SAL+.

In the case of `CCOC(=O)N(C)N=O`, the mutagenic call is “active; positive” (Species/Cell Type: Arabidopsis species, Assay Type: Gene mutation, Assay Code: ARM+D, Dose Response: With dose response); “active; positive” (Species/Cell Type: Bacillus subtilis (H17 vs M45T), Assay Type: Rec-assay, spot test, DNA effects (bacterial DNA repair), Assay Code: REX+); “active; positive” (Species/Cell Type: Drosophila melanogaster, Assay Type: Sex-linked recessive lethal gene mutation, Assay Code: SRL+); “no conclusion” (Species/Cell Type: Drosophila melanogaster, Sex: Male, Assay Type: Heritable translocation test, chromosome aberrations, Assay Code: DHTT); “active; positive” (Species/Cell Type: Escherichia coli polA (W3119 vs P3478), Assay Type: Rec-assay, DNA effects (bacterial DNA repair), Assay Code: RE1+); “active; positive” (Species/Cell Type: Hordeum vulgare (barley), Assay Type: Chromosome aberrations, Assay Code: HOC+D, Dose Response: With dose response). Also, the mutagenic call (Species/Cell Type: Hordeum vulgare (barley), Assay Type: Gene mutation, Assay Code: HOM+) is “active; positive”; the mutagenic call (Species/Cell Type: Saccharomyces cerevisiae, Assay Type: Forward gene mutation, Assay Code: YEF+) was “active; positive”; the mutagenic call (Species/Cell Type: Saccharomyces cerevisiae, Assay Type: Mitotic recombination or gene conversion, Assay Code: YEC+) was “active; positive”; the mutagenic call (Species/Cell Type: Saccharomyces cerevisiae, Assay Type: Mitotic recombination or gene conversion, Assay Code: YEH+) is “active; positive”; the mutagenic call under setting [1] was “active; positive”; the mutagenic call (Species/Cell Type: Schizosaccharomyces pombe, Assay Type: Reverse gene mutation, Assay Code: YEZ+) was “active; positive”. For the same compound, the call (Species/Cell Type: Nonhuman, Assay Type: In vivo carcinogenicity studies, Assay Code: CCG+) is “active; positive”.
Consider `CC(C)(OO)c1ccccc1`, for which, for the setting “Species/Cell Type: Saccharomyces cerevisiae, Assay Type: Mitotic recombination or gene conversion, Assay Code: YEC-”, the mutagenic call was “inactive; negative”.
Turning to `O=S(=O)(O)c1ccc(O)c2ncccc12`, the mutagenic call (Species/Cell Type: Salmonella typhimurium (one or more of the five standard strains: TA98, TA100, TA1535, TA1537, and TA1538), Assay Type: Histidine reverse gene mutation, Ames assay, Assay Code: SAL+*, Activation: With metabolic activation) was “active; positive”.
For the compound `O=C1CN=C(c2ccccc2)c2cc([N+](=O)[O-])ccc2N1`, the mutagenic call (Species/Cell Type: Aspergillus nidulans, Assay Type: Forward gene mutation, Assay Code: ASF+) is “active; positive”.
For the compound `CNC=O`, the mutagenic call (Species/Cell Type: Escherichia coli WP2, Assay Type: Tryptophan reverse gene mutation, Assay Code: WP2-) is “inactive; negative”.
As to `OCCO`, the mutagenic call reads like this: (Species/Cell Type: Drosophila melanogaster, Assay Type: Aneuploidy, sex chromosome gain, chromosome aberrations, Assay Code: DAGT) “no conclusion”; (Species/Cell Type: Drosophila melanogaster, Assay Type: Aneuploidy, whole sex chromosome loss, chromosome aberrations, Assay Code: DACT) “no conclusion”; (Species/Cell Type: Neurospora crassa, Assay Type: Aneuploidy, chromosome aberrations, Assay Code: NEN-) “inactive; negative”; (Species/Cell Type: Salmonella typhimurium (one or more of the five standard strains: TA98, TA100, TA1535, TA1537, and TA1538), Assay Type: Histidine reverse gene mutation, Ames assay, Assay Code: SAL-) “inactive; negative”; (Species/Cell Type: Syrian hamster embryo (SA7/SHE) cells, Assay Type: Cell transformation, viral enhanced, Assay Code: CT7-) “inactive; negative”.
Take `C=C1C(=O)O[C@@H]2C[C@@H](C)[C@@H]3C[C@H](O)O[C@@H](O)[C@@]3(C)C[C@H]12`: under setting [1], the mutagenic call is “active; positive”.
On to `COc1ccc(/C=N/NC(=O)COc2ccc(Br)cc2CN(C)C)cc1`, for which the mutagenic call (Species/Cell Type: Saccharomyces cerevisiae, Assay Type: Reverse gene mutation, Assay Code: YERT) is “no conclusion”.
